According to ChEMBL document CHEMBL2311345, “Facile synthesis and characterization of novel pyrazole-sulfonamides and their inhibition effects on human carbonic anhydrase isoenzymes” (Bioorg Med Chem, 2013):

How the values were obtained:
[1] = molecular target: Carbonic anhydrase 2 (Homo sapiens, UniProt P00918); assay: Un-competitive inhibition of human erythrocytes carbonic anhydrase 2 esterase activity by Lineweaver-Burk plot analysis
[2] = molecular target: Carbonic anhydrase 1 (Homo sapiens, UniProt P00915); assay: Un-competitive inhibition of human erythrocytes carbonic anhydrase 1 esterase activity by Lineweaver-Burk plot analysis
Chain of Carbonic anhydrase 1 (P00915 whole entry): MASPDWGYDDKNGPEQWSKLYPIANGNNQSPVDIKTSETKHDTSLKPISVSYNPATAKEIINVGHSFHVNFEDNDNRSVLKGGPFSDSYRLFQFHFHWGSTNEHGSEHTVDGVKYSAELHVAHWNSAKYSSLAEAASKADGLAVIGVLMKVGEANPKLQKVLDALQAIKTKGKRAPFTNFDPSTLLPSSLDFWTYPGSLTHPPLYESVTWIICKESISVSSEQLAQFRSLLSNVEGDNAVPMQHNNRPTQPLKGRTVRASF

Row | Ki [1] | Ki [2] | Compound
1 | 12.4 nM | – | NS(=O)(=O)c1ccc(NC(=O)c2nn(-c3cccc(/N=N/c4c(O)ccc5ccccc45)c3)c(-c3ccccc3)c2C(=O)O)cc1
2 | – | 62.3 nM | CC(=O)/C(=N\Nc1cccc(-n2nc(C(=O)Nc3ccc(S(N)(=O)=O)cc3)c(C(=O)O)c2-c2ccccc2)c1)C(=O)c1ccccc1
